The results in this text go back to patent publication US11738006B2, “Pharmaceutical composition containing antifungal agent as active ingredient” (priority 2019, dated 2023).

A short description of this series: Test on solubility to polyethylene glycol (visual check for insoluble luliconazole). Type of series: physicochemical. As to the method: Examined was how luliconazole is dissolved by polyethylene glycol 200 having an average molecular weight of 190 to 210, polyethylene glycol 300 having an average molecular weight of 285 to 315, polyethylene glycol 400 having an average molecular weight of 380 to 420, and polyethylene glycol 600 having an average molecular weight of 570 to 630, each of which is represented by the formula HOCH2(CH2OCH2)nCH2OH (where n is an integer). To this end, the above polyethylene glycols (manufactured by NOF Corporation) were mixed with luliconazole according to the formulation presented in Table 1 below, and the properties of the solution (presence of insoluble matter (luliconazole)) were visually evaluated.

Structures are written as SMILES.

`N#C/C(=C1/SC[C@@H](c2ccc(Cl)cc2Cl)S1)n1ccnc1` [luliconazole, (R)-(−)-(E)-[4-(2,4-dichlorophenyl)-1,3-dithiolane-2-ylidene]-1-imidazolylacetonitrile]: the solubility for luliconazole entry runs as follows: (in polyethylene glycol 400 compared to polyethylene glycol 200, 300 and 600) “highest solubility”; (in polyethylene glycols 200, 300, 400, and 600) “high solubility”.
